From paper PMC9867442, “Indole Derivatives Bearing Imidazole, Benzothiazole-2-Thione or Benzoxazole-2-Thione Moieties—Synthesis, Structure and Evaluation of Their Cytoprotective, Antioxidant, Antibacterial and Fungicidal Activities” (Molecules, 2023)

System: Poria placenta (Pp)
Test: Antifungal agar-plate method
Type: cell-based
Conditions: concentration 0.0001%
Method: (§1) Fungal strains: Coriolus versicolor (Cv), Poria placenta (Pp), Coniophora puteana (Cp) and Gloeophyllum trabeum (Gt) were used as a test organism for the experimental determination of the antifungal activity of 1–11. The fungus were obtained from the collection of the Department of Wood Chemical Technology, Faculty of Forestry and Wood Technology, Poznań, University of Life Sciences, Poland. The fungal growth rates were measured in 90 mm-diameter plastic dishes using the agar-plate method, described by Ważny and Thorton. Five concentrations of gramine and its derivatives in the range of 0.1% to 0.00001% were studied. The compound was applied on the agar (2% agar and 5% malt-extract) prepared on the Petri dish and previously autoclaved. The combination of the compound and fungus was repeated three times. Given sample was centrally inoculated with a 5 mm diameter disc taken from the submargin of 5-day-old malt agar plates. The plates were incubated in darkness at 21 ± 2 °C and 70 ± 5% relative air humidity. The growth duration was determined by the total coverage of the reference plate. The radius of the area covered by the fungus compared with the reference agar plate was employed to calculate the effective doses, ED50, of preservative concentrations retarding the fungal growth rate by 50%.

Row | Substance | Antifungal activity (inhibition of mycelial growth) [%]
1 | 3-((2-phenyl-2,5-dihydro-1H-imidazol-1-yl)methyl)-1H-indole [Compound 8] | 0

Same assay, conditions: concentration 0.001%

Row | Substance | Antifungal activity (inhibition of mycelial growth) [%]
2 | 3-((2-phenyl-2,5-dihydro-1H-imidazol-1-yl)methyl)-1H-indole [Compound 8] | 17

Same assay, conditions: concentration 0.01%

Row | Substance | Antifungal activity (inhibition of mycelial growth) [%]
3 | 3-((2-phenyl-2,5-dihydro-1H-imidazol-1-yl)methyl)-1H-indole [Compound 8] | 45

Same assay, conditions: concentration 0.1%

Row | Substance | Antifungal activity (inhibition of mycelial growth) [%]
4 | 3-((2-phenyl-2,5-dihydro-1H-imidazol-1-yl)methyl)-1H-indole [Compound 8] | 100

System: Coniophora puteana (Cp)
Test: Antifungal agar-plate method
Type: cell-based
Conditions: concentration 0.0001%
Method: as §1

Row | Substance | Antifungal activity (inhibition of mycelial growth) [%]
5 | 3-((2-phenyl-2,5-dihydro-1H-imidazol-1-yl)methyl)-1H-indole [Compound 8] | 0

Same assay, conditions: concentration 0.001%

Row | Substance | Antifungal activity (inhibition of mycelial growth) [%]
6 | 3-((2-phenyl-2,5-dihydro-1H-imidazol-1-yl)methyl)-1H-indole [Compound 8] | 0

Same assay, conditions: concentration 0.01%

Row | Substance | Antifungal activity (inhibition of mycelial growth) [%]
7 | 3-((2-phenyl-2,5-dihydro-1H-imidazol-1-yl)methyl)-1H-indole [Compound 8] | 48

Same assay, conditions: concentration 0.1%

Row | Substance | Antifungal activity (inhibition of mycelial growth) [%]
8 | 3-((2-phenyl-2,5-dihydro-1H-imidazol-1-yl)methyl)-1H-indole [Compound 8] | 100

System: Gloeophyllum trabeum (Gt)
Test: Antifungal agar-plate method
Type: cell-based
Conditions: concentration 0.0001%
Method: as §1

Row | Substance | Antifungal activity (inhibition of mycelial growth) [%]
9 | 3-((2-phenyl-2,5-dihydro-1H-imidazol-1-yl)methyl)-1H-indole [Compound 8] | 13

Same assay, conditions: concentration 0.001%

Row | Substance | Antifungal activity (inhibition of mycelial growth) [%]
10 | 3-((2-phenyl-2,5-dihydro-1H-imidazol-1-yl)methyl)-1H-indole [Compound 8] | 18

Same assay, conditions: concentration 0.01%

Row | Substance | Antifungal activity (inhibition of mycelial growth) [%]
11 | 3-((2-phenyl-2,5-dihydro-1H-imidazol-1-yl)methyl)-1H-indole [Compound 8] | 53

Same assay, conditions: concentration 0.1%

Row | Substance | Antifungal activity (inhibition of mycelial growth) [%]
12 | 3-((2-phenyl-2,5-dihydro-1H-imidazol-1-yl)methyl)-1H-indole [Compound 8] | 100

System: Coriolus versicolor (Cv)
Test: Antifungal agar-plate method
Type: cell-based
Conditions: concentration 0.0001%
Method: as §1

Row | Substance | Antifungal activity (inhibition of mycelial growth) [%]
13 | 3-((2-phenyl-2,5-dihydro-1H-imidazol-1-yl)methyl)-1H-indole [Compound 8] | 7

Same assay, conditions: concentration 0.001%

Row | Substance | Antifungal activity (inhibition of mycelial growth) [%]
14 | 3-((2-phenyl-2,5-dihydro-1H-imidazol-1-yl)methyl)-1H-indole [Compound 8] | 13

Same assay, conditions: concentration 0.01%

Row | Substance | Antifungal activity (inhibition of mycelial growth) [%]
15 | 3-((2-phenyl-2,5-dihydro-1H-imidazol-1-yl)methyl)-1H-indole [Compound 8] | 41

Same assay, conditions: concentration 0.1%

Row | Substance | Antifungal activity (inhibition of mycelial growth) [%]
16 | 3-((2-phenyl-2,5-dihydro-1H-imidazol-1-yl)methyl)-1H-indole [Compound 8] | 100

System: not listed separately
Test: Ferrous ions (Fe2+) chelating activity (ferrozine)
Conditions: 0.1 mg/mL, 10 min, room temperature
Method: Ferrous ions (Fe^2+) chelating activity was evaluated by inhibition of the formation of Fe^2+-ferrozine complex after incubation of the compounds tested with Fe^2+. The Fe^2+-chelating ability of compounds tested was determined by the absorbance of the ferrous ion-ferrozine complex at 562 nm. In brief, 0.1 mg/mL concentration of the compounds tested in 0.2 mL ethyl alcohol were added to a solution of 0.6 mM FeCl2 (0.05 mL). EDTA (ethylenediaminetetraacetic acid) was used as the standard EDTA chelating agent. The reaction was started by the addition of 5 mM ferrozine (0.05 mL) in ethyl alcohol and shaken vigorously immediately. The samples were stored for 10 min at room temperature (~22 °C). Following incubation, the absorbance (Abs) of the solutions was measured at 562 nm in a spectrophotometer. The percentage of inhibition of ferrozine—Fe^2+ complex formation was calculated using the equation: Fe^2+ chelating effect (%) = [1 − (Abs1/Abs0)] × 100% where Abs0 is the absorbance of the sample without the tested compound and Abs1 is the absorbance in the presence of the compound tested. Each sample was made in triplicate, and three independent experiments were performed.

Row | Substance | Chelating activity [%]
17 | 3-((2-phenyl-2,5-dihydro-1H-imidazol-1-yl)methyl)-1H-indole [Compound 8] | 40

System: Escherichia coli
Test: Antibacterial well-diffusion method
Type: cell-based
Conditions: 0.1 mL of compound in DMSO, 48 h, 37 °C
Method: (§2) The antimicrobial properties of compounds were determined against selected bacteria: Micrococcus luteus, Bacillus subtilis, Escherichia coli and Pseudomonas fluorescens which came from the collection of Pure Cultures of the Facility of Microbiology of the Department of Soil Science and Microbiology of the Poznan University of Life Sciences. The well-diffusion method was used to evaluate the antimicrobial properties of compounds. 6 mL each of liquidized broth medium was poured into sterile Petri dishes and allowed to solidify. After which, two sterile glass rings with a diameter of 0.5 cm were placed on the surface of each plate. Then 20 mL each of liquid broth medium containing suspensions of the tested bacterial strains at a density of 10^7 cells/cm3, obtained from 48-h cultures on broth […], was introduced. After the medium solidified, the glass rings were removed with a pencil, obtaining two wells on each plate. 0.1 mL of compound dissolved in pure dimethyl sulphoxide was introduced into one well, and 0.1 mL of pure dimethyl sulphoxide was introduced into the other well, which was as a control. Each compound was tested in four replicates. The plates were incubated for 48 h in a thermostat at 27 °C for M. luteus, B. subtilis and P. fluorescens cultures, and the E. coli culture at 37 °C. At the end of the incubation, the diameters of growth inhibition of the tested strains were measured using calipers.

Row | Substance | Zone of Growth Inhibition [mm]
18 | 3-((2-phenyl-2,5-dihydro-1H-imidazol-1-yl)methyl)-1H-indole [Compound 8] | 5

System: Bacillus subtilis
Test: Antibacterial well-diffusion method
Type: cell-based
Conditions: 0.1 mL of compound in DMSO, 48 h, 27 °C
Method: as §2

Row | Substance | Zone of Growth Inhibition [mm]
19 | 3-((2-phenyl-2,5-dihydro-1H-imidazol-1-yl)methyl)-1H-indole [Compound 8] | 3.7

System: Pseudomonas fluorescens
Test: Antibacterial well-diffusion method
Type: cell-based
Conditions: 0.1 mL of compound in DMSO, 48 h, 27 °C
Method: as §2

Row | Substance | Zone of Growth Inhibition [mm]
20 | 3-((2-phenyl-2,5-dihydro-1H-imidazol-1-yl)methyl)-1H-indole [Compound 8] | 0

System: Micrococcus luteus
Test: Antibacterial well-diffusion method
Type: cell-based
Conditions: Micrococus luteus, 0.1 mL of compound in DMSO, 48 h, 27 °C
Method: as §2

Row | Substance | Zone of Growth Inhibition [mm]
21 | 3-((2-phenyl-2,5-dihydro-1H-imidazol-1-yl)methyl)-1H-indole [Compound 8] | 8.6
